Values of other authors as cited in article PMC7753040, “Discovery of a Potent RIPK3 Inhibitor for the Amelioration of Necroptosis-Associated Inflammatory Injury” (Frontiers in Cell and Developmental Biology, 2020).

Test system: RIPK3
Parameters: method as in Mandal et al., 2014
Conditions: ref Mandal et al., 2014; cited from earlier work

CC(C)S(=O)(=O)c1ccc2nccc(Nc3ccc4scnc4c3)c2c1 [GSK’872]
induction of on-target apoptosis: able to induce on-target apoptosis
